Laboratory results: US6706663B2, “Herbicidal 3-heterocyclic substituted benzisothiazole and benzisoxazole compounds” (Wyeth, priority 2000, dated 2004)

What was measured:
[1] = test system: ECHCG (Echinochloa crus-galli); experiment: Postemergence herbicidal evaluation; format: in vivo, (L.) Beau; details: postemergence
In short: (§1)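 Seedlings grown for about two weeks were sprayed postemergence and then kept under standard greenhouse care. Injury was rated visually 4–5 weeks after treatment on a 0–9 scale against untreated controls, and ratings from repeat tests were averaged.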

CYPIR (Cyperus iria) = experiment: Flooded paddy, preemergence weed control; format: in vivo; details: rated 3-4 weeks after treatment, 0-9 rating scale
In short: (§2)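 Scoring used a 0-9 visual scale relative to control. Before that, seeds or propagules were planted shallowly in silt loam and flooded to 1.5–3 cm, a depth maintained throughout, with greenhouse care during the test.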

ORYSAT (Rice, Tebonnet) [2] = experiment: Flooded paddy, post-transplant rice tolerance; format: in vivo, Oryza sativa, (L.) Tebonnet; details: flooded paddy, post-transplant rice; rate 0.1250 kg/ha; rated 3-4 weeks after treatment; 0-9 rating scale
In short: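 Visual 0-9 rating against a control, covering stand, vigor, malformation, size, chlorosis and overall appearance. Treatment was applied after transplanting paired ten-day-old seedlings into flooded silt loam, with water kept 1.5 to 3 cm deep on greenhouse benches.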

[3] = test system: TRZAWR (Wheat, Winter, cv Riband); experiment: Postemergence herbicidal evaluation; format: in vivo, Triticum aestivum; details: postemergence
In short: as §1

[4] = test system: SAGPY (Sagittaria pygmaea); experiment: Flooded paddy, preemergence weed control; format: in vivo, L.; details: rated 3-4 weeks after treatment, 0-9 rating scale
In short: as §2

ZEAMX (Corn, Field) [5] = experiment: Preemergence herbicidal evaluation; format: in vivo, Zea mays, L.; details: preemergence, rated 4-5 weeks after treatment
[6] = test system: IPOHE (Ipomoea hederacea); experiment: Postemergence herbicidal evaluation; format: in vivo, (L.) Jacq.; details: postemergence
In short: as §1

[7] = test system: ECHORC (Echinochloa oryzoides); experiment: Flooded paddy, preemergence weed control; format: in vivo, Echinochloa oryzoides (Ard.) Fritsch.; details: rated 3-4 weeks after treatment, 0-9 rating scale
In short: as §2

[8] = test system: IPOHE (Ipomoea hederacea); experiment: Preemergence herbicidal evaluation; format: in vivo, (L.) Jacq.; details: preemergence, rated 4-5 weeks after treatment
[9] = test system: ABUTH (Abutilon theophrasti); experiment: Postemergence herbicidal evaluation; format: in vivo, Medic.; details: postemergence
In short: as §1

[10] = test system: CASOB (Cassia obtusifolia); experiment: Postemergence herbicidal evaluation; format: in vivo, L.; details: postemergence
In short: as §1

[11] = test system: AMBEL (Ambrosia artemisifolia); experiment: Postemergence herbicidal evaluation; format: in vivo, L.; details: postemergence
In short: as §1

[12] = test system: CHEAL (Chenopodium album); experiment: Postemergence herbicidal evaluation; format: in vivo, L.; details: postemergence
In short: as §1

[13] = test system: GLXMAW (Soybean, Williams); experiment: Postemergence herbicidal evaluation; format: in vivo, Glycine max, (L.) Merr. cv Williams; details: postemergence
In short: as §1

ZEAMX (Corn, Field) [14] = experiment: Postemergence herbicidal evaluation; format: in vivo, Zea mays, L.; details: postemergence
In short: as §1

[15] = test system: ECHCG (Echinochloa crus-galli); experiment: Preemergence herbicidal evaluation; format: in vivo, (L.) Beau; details: preemergence, rated 4-5 weeks after treatment
In short: (§3)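 Each species was sown separately in potting soil over roughly one inch of soil, and the surface sprayed with compound dissolved in aqueous acetone. Assessment used a 0–9 visual scale against a control after four to five weeks.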

GLXMA (Soybean) = experiment: Preemergence herbicidal evaluation; format: in vivo, Glycine max, (L.) Merr.; details: preemergence, rated 4-5 weeks after treatment
[16] = test system: MOOVA (Monochoria vaginalis); experiment: Flooded paddy, preemergence weed control; format: in vivo, Presl.; details: rated 3-4 weeks after treatment, 0-9 rating scale
In short: as §2

[17] = test system: ABUTH (Abutilon theophrasti); experiment: Preemergence herbicidal evaluation; format: in vivo, Medic.; details: preemergence, rated 4-5 weeks after treatment
[18] = test system: AMBEL (Ambrosia artemisifolia); experiment: Preemergence herbicidal evaluation; format: in vivo, L.; details: preemergence, rated 4-5 weeks after treatment
In short: as §3

ORYSAT (Rice, Tebonnet) [19] = experiment: Postemergence herbicidal evaluation; format: in vivo, Oryza sativa, (L.) Tebonnet; details: postemergence
In short: as §1

GALAP (Galium aparine) = experiment: Postemergence herbicidal evaluation; format: in vivo; details: postemergence
In short: as §1

COC1(c2nsc3ccc(-n4c(=O)cc(C(F)(F)F)n(C)c4=O)cc23)N=C(N(C)C)NC1=O (stereo not shown) [Compound 93, 3-[3-[2-(dimethylamino)-4-methoxy-5-oxo-2-imidazolin-4-yl]-1,2-benzisothiazol-5-yl]-1-methyl-6-(trifluoromethyl)uracil]
9.0: ECHCG herbicidal rating ([1]; rate 0.0320 kg/ha) | ECHCG herbicidal rating ([1]; rate 0.0620 kg/ha) | CYPIR herbicidal rating (CYPIR (Cyperus iria); rate 0.1250 kg/ha) | SAGPY herbicidal rating ([4]; rate 0.1250 kg/ha) | IPOHE herbicidal rating ([6]; rate 0.0320 kg/ha) | IPOHE herbicidal rating ([6]; rate 0.0620 kg/ha) | Preemergence herbicidal rating IPOHE ([8]; rate 0.1250 kg/ha) | Preemergence herbicidal rating IPOHE ([8]; rate 0.2500 kg/ha) | ABUTH herbicidal rating ([9]; rate 0.0320 kg/ha) | ABUTH herbicidal rating ([9]; rate 0.0620 kg/ha) | CASOB herbicidal rating ([10]; rate 0.0620 kg/ha) | AMBEL herbicidal rating ([11]; rate 0.0320 kg/ha) | AMBEL herbicidal rating ([11]; rate 0.0620 kg/ha) | CHEAL herbicidal rating ([12]; rate 0.0320 kg/ha) | CHEAL herbicidal rating ([12]; rate 0.0620 kg/ha) | GLXMAW herbicidal rating ([13]; rate 0.0320 kg/ha) | GLXMAW herbicidal rating ([13]; rate 0.0620 kg/ha) | MOOVA herbicidal rating ([16]; rate 0.1250 kg/ha) | Preemergence herbicidal rating ABUTH ([17]; rate 0.0620 kg/ha) | Preemergence herbicidal rating ABUTH ([17]; rate 0.1250 kg/ha) | Preemergence herbicidal rating ABUTH ([17]; rate 0.2500 kg/ha) | Preemergence herbicidal rating AMBEL ([18]; rate 0.2500 kg/ha) | GALAP herbicidal rating (GALAP (Galium aparine); rate 0.0320 kg/ha) | GALAP herbicidal rating (GALAP (Galium aparine); rate 0.0620 kg/ha)
5.5: TRZAWR herbicidal rating ([3]; rate 0.0320 kg/ha) | ZEAMX herbicidal rating (ZEAMX (Corn, Field) [14]; rate 0.0320 kg/ha) | ZEAMX herbicidal rating (ZEAMX (Corn, Field) [14]; rate 0.0620 kg/ha)
8.0: ORYSAT herbicidal rating (transplanted rice tolerance) (ORYSAT (Rice, Tebonnet) [2]) | ORYSAT herbicidal rating (ORYSAT (Rice, Tebonnet) [19]; rate 0.0620 kg/ha)
0.0: CYPIR herbicidal rating (CYPIR (Cyperus iria); rate 0.0320 kg/ha) | SAGPY herbicidal rating ([4]; rate 0.0320 kg/ha) | Preemergence herbicidal rating ZEAMX (ZEAMX (Corn, Field) [5]; rate 0.0620 kg/ha) | Preemergence herbicidal rating ZEAMX (ZEAMX (Corn, Field) [5]; rate 0.1250 kg/ha) | Preemergence herbicidal rating ZEAMX (ZEAMX (Corn, Field) [5]; rate 0.2500 kg/ha) | ECHORC herbicidal rating ([7]; rate 0.0320 kg/ha) | Preemergence herbicidal rating ECHCG ([15]; rate 0.0620 kg/ha) | Preemergence herbicidal rating ECHCG ([15]; rate 0.1250 kg/ha) | MOOVA herbicidal rating ([16]; rate 0.0320 kg/ha)
7.0: CASOB herbicidal rating ([10]; rate 0.0320 kg/ha) | Preemergence herbicidal rating GLXMA (GLXMA (Soybean); rate 0.2500 kg/ha) | Preemergence herbicidal rating AMBEL ([18]; rate 0.1250 kg/ha)
3.0: Preemergence herbicidal rating IPOHE ([8]; rate 0.0620 kg/ha)
7.5: TRZAWR herbicidal rating ([3]; rate 0.0620 kg/ha)
4.0: Preemergence herbicidal rating ECHCG ([15]; rate 0.2500 kg/ha) | Preemergence herbicidal rating GLXMA (GLXMA (Soybean); rate 0.0620 kg/ha) | Preemergence herbicidal rating AMBEL ([18]; rate 0.0620 kg/ha) | ORYSAT herbicidal rating (ORYSAT (Rice, Tebonnet) [19]; rate 0.0320 kg/ha)
6.0: ECHORC herbicidal rating ([7]; rate 0.1250 kg/ha) | Preemergence herbicidal rating GLXMA (GLXMA (Soybean); rate 0.1250 kg/ha)
